The record followed here is patent publication US12606544B2, “JAK1 selective kinase inhibitor” (DIZAL (JIANGSU) PHARMACEUTICAL CO., LTD., priority 2019, dated 2026).

Data set [1] in a line: Metabolic stability in human liver microsome. It is filed as in vitro ADME. As to conditions: human, pooled human liver microsomes, pH 7.4, 1 μM compound, 1 mg/mL microsomes, NADPH.
A further data set has as its target T1, TYK2 (Homo sapiens, UniProt P29597).
T1 construct: purchased Carna Biosciences
Kind of data set: Lance Ultra Kinase Assay, recombinant TYK2. It is filed as biochemical. The following applies: 5 mM ATP. An outline of the steps: (§1)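 Each recombinant kinase preincubated with or without compound 15 min at room temperature, then reaction started with 5 mM ATP and substrate peptide for 60 min. Stopped with EDTA-containing detection mix; TR-FRET read at ex 320 nm, 665/615 nm emission ratio taken as kinase activity.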

For the next data set, the system named is phosphorylation of STAT6. Kind of data set: Cellular p-STAT6 assay, IL-13 stimulated THP-1 cells, flow cytometry. It counts as cell-based. As to conditions: Homo sapiens, THP-1, THP-1 cells, IL-13 10 ng/ml; read-out: pSTAT6 IC50. The method, boiled down:
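THP-1 cells (2×10^5/well, RPMI1640 + 10% FBS) preincubated 60 min at room temperature with compound (1 μM to 0.3 nM), then stimulated 30 min with IL-13 at 10 ng/ml. Fixed, methanol-permeabilized cells stained with PE anti-pSTAT6 and read by flow cytometry; IC50 from dose-response curves.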
A general note: Flow cytometry measures light scatter and fluorescence of single cells or particles in a stream.

The target in another data set is T2, JAK2 (Homo sapiens, UniProt O60674).
T2 construct: purchased Carna Biosciences
T2 sequence (O60674 whole entry): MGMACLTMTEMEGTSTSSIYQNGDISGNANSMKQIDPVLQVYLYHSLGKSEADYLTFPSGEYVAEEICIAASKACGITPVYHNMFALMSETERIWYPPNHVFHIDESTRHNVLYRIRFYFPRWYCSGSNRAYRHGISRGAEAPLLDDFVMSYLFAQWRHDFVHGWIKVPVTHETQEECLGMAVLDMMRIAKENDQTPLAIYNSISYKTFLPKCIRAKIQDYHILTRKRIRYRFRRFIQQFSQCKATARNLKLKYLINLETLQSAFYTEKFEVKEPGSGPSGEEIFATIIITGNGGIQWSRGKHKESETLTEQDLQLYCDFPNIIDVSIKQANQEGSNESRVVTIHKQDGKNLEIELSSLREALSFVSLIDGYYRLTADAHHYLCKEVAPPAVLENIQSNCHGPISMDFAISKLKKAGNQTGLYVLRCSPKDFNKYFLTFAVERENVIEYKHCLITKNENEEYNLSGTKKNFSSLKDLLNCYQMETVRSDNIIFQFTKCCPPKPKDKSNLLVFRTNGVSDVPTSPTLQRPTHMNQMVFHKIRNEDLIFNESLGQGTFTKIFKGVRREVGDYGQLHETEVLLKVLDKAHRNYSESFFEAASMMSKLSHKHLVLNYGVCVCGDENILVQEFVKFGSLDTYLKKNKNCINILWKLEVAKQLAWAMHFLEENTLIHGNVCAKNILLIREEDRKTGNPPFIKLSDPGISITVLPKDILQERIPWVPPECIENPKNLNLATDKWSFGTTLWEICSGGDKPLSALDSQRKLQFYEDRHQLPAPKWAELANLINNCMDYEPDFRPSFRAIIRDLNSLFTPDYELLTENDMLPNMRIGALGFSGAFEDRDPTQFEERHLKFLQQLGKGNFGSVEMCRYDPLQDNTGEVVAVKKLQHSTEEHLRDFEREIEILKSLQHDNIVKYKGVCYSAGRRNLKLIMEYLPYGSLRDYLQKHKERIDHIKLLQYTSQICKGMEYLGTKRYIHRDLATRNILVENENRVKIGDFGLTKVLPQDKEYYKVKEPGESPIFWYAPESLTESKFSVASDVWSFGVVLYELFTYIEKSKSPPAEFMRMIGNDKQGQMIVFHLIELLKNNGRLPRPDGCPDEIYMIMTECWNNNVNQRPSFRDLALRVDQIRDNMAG
Kind of data set: Lance Ultra Kinase Assay, recombinant JAK2. As to conditions: 5 mM ATP. It counts as biochemical. An outline of the steps: as §1

The target in the next data set is T3, JAK1 (Homo sapiens, UniProt P23458).
T3 construct: purchased Carna Biosciences
T3 sequence (P23458 whole entry): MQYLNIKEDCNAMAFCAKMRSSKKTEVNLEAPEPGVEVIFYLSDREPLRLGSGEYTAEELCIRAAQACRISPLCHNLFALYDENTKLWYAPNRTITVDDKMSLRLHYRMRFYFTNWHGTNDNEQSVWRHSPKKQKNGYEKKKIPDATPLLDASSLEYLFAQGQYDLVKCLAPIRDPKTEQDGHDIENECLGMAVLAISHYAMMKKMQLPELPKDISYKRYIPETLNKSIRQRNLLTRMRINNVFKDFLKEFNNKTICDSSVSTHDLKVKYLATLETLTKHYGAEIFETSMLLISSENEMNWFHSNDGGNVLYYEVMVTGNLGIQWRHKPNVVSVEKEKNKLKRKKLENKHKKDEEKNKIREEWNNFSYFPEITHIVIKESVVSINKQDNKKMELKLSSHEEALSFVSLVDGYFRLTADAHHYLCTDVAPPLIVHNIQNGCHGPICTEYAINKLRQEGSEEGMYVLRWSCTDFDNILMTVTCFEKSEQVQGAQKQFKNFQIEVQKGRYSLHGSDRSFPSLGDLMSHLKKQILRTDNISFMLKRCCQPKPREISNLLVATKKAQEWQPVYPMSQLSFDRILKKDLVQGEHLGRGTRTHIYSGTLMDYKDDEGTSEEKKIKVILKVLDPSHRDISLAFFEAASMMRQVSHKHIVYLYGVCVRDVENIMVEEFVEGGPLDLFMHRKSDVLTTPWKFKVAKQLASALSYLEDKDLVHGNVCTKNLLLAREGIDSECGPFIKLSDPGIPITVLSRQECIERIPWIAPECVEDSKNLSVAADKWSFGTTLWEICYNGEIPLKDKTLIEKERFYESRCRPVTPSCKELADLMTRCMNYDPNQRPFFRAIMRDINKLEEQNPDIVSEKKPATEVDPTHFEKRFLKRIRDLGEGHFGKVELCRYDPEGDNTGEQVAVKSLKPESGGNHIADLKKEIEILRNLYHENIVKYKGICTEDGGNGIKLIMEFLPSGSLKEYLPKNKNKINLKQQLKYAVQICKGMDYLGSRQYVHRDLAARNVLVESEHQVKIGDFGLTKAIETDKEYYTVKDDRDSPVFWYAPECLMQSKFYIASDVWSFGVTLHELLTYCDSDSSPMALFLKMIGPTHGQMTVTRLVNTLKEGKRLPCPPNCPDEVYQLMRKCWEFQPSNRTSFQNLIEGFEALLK
Kind of data set: Lance Ultra Kinase Assay, recombinant JAK1. It is filed as biochemical. The following applies: 5 mM ATP. The method, boiled down:
as §1

A short description of data set [2]: Metabolic stability in rat hepatocytes. It is filed as in vitro ADME. The following applies: 1 μM compound, male rat hepatocytes.
The nature of data set [3]: Pharmacokinetics in plasma and lung in mouse, intratracheal instillation. The following applies: male CD1 mice; for half-life / Kp at 5 min / Kp at 1 h: mouse; for half-life: lung, intratracheal instillation, read-out: Lung T1/2 (converted); for Kp at 5 min / Kp at 1 h: lung/plasma, other: intratracheal instillation; for Kp at 5 min: read-out: Conc. Ratio (Lung/Plasma) 5 min; for Kp at 1 h: read-out: Conc. Ratio (Lung/Plasma) 1 hr. It is filed as in vivo. How it is done:
Lung PK of the compounds were tested via Intratracheal (IT) instillation administration in male CD1 Mice. Plasma and lung levels of test compounds and ratios thereof were determined in the following manner. Test compounds were dosed cassettely as the formulation of 0.4 mg/mL suspension of 0.5% HPMC, 0.1% Tween 80 in saline. The animal was anesthetized using 5% of isoflurane for 5 min, open its mouth and take out the tongue, the light was focused on the neck of the mouse and localize the trachea, and the syringe was inserted into the trachea while the trachea is in the open state, and the test compounds were inject into the trachea. At various time points (typically 5 min, 1, 4, 24 hours) post dosing, approximately 0.250 mL blood samples were removed via cardiac puncture and intact lungs were excised from the mice. Each blood sample was transferred into plastic micro centrifuge tubes containing K2EDTA. Blood samples were then centrifuged (Eppendorf centrifuge, 5804R) for 4 minutes at approximately 12,000 rpm at 4° C. to collect plasma. The mice will be fully exsanguinated prior to tissue collection. Lung samples will be collected at adopted time point and the whole lung were weighted and homogenized. Concentrations of test compounds in the plasma and lung samples were analyzed using a LC-MS/MS method. WinNonlin (Phoenix™) or other similar software will be used for pharmacokinetic calculations.

The target of the next data set is T4, JAK3 (Homo sapiens, UniProt P52333).
T4 construct: purchased Carna Biosciences
T4 sequence (P52333 1-1124): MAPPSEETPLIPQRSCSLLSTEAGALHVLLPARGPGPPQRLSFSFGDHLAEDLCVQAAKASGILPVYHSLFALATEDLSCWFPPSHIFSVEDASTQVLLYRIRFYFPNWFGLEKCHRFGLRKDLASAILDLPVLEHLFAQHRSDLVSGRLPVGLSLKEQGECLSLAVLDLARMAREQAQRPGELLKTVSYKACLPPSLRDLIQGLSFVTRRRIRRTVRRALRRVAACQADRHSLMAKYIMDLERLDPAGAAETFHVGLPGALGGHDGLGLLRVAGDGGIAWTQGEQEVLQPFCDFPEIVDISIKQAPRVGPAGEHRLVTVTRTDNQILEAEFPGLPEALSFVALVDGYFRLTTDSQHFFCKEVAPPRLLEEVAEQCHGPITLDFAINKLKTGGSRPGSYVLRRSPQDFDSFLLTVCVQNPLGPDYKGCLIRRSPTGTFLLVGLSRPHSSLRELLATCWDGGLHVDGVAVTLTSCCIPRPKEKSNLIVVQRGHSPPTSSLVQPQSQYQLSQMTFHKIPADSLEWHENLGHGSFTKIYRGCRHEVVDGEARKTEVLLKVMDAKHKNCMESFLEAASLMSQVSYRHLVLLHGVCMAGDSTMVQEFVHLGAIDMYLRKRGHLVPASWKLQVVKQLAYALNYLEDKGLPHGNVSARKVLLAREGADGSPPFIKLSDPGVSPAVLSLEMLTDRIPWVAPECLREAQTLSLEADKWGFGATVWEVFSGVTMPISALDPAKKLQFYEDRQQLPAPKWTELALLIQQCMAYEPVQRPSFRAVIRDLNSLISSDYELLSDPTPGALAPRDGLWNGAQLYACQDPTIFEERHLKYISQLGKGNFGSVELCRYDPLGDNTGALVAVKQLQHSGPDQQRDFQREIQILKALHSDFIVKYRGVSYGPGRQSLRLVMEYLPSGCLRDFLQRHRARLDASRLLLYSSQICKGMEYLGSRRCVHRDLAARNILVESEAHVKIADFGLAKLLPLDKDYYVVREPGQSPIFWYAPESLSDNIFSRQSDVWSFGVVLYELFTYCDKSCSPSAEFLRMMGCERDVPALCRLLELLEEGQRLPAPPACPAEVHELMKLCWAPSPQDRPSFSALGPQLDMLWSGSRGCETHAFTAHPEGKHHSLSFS
Kind of data set: Lance Ultra Kinase Assay, recombinant JAK3. As to conditions: 5 mM ATP. It is filed as biochemical. An outline of the steps: as §1

T1 sequence (P29597 whole entry): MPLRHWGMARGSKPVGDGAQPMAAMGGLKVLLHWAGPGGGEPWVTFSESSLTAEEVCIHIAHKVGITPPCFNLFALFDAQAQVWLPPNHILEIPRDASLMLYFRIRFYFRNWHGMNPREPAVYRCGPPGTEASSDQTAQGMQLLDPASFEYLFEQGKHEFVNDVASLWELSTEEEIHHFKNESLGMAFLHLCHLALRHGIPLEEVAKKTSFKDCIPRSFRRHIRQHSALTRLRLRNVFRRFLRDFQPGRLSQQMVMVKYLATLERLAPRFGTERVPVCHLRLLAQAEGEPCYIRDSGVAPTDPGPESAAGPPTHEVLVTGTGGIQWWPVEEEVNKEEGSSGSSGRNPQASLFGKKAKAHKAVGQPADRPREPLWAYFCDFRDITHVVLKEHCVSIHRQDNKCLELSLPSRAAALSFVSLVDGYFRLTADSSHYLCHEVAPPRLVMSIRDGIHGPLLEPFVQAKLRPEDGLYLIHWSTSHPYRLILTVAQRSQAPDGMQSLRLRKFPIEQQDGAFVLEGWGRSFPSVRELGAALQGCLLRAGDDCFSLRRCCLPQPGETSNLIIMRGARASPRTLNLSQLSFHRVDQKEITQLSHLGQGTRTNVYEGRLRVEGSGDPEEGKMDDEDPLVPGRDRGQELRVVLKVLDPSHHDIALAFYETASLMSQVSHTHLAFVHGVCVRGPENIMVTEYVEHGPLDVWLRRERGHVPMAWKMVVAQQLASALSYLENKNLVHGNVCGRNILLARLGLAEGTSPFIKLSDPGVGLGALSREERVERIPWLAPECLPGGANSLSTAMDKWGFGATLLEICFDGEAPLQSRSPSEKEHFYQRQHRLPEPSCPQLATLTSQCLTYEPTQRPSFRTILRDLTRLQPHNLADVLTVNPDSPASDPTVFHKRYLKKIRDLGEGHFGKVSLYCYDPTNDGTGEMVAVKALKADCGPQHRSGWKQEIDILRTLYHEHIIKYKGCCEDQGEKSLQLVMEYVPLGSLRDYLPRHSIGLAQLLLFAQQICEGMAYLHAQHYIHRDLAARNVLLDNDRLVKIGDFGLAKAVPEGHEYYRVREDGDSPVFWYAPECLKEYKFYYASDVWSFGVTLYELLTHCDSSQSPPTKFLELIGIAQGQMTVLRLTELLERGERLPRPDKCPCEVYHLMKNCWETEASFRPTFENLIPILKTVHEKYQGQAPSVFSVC

One may read the microsomal CLint as a measure of how fast metabolising enzymes remove a compound, apart from limits set by blood flow. A word on the IC50: it is the concentration that inhibits the measured activity by half. With `COC[C@H](C(=O)Nc1cccc2c(-c3nc(Nc4ccc(NC(=O)CO)nc4)ncc3F)c[nH]c12)N1CCN(C)CC1` [Example 8, (R)-N-(3-(5-fluoro-2-((6-(2-hydroxyacetamido)pyridin-3-yl)amino)pyrimidin-4-yl)-1H-indol-7-yl)-3-methoxy-2-(4-methylpiperazin-1-yl)propanamide], in data set [1], the microsomal CLint at 1 μM was 7.2 µL/min/mg. Besides, the IC50 is 850 nM on TYK2; 6.2 nM with phosphorylation of STAT6; 183 nM at JAK2; 0.16 nM at JAK1; greater than 10000 nM at JAK3. Besides, the “Rat Hepatocyte CLint” value in data set [2] is given as 38.4 μL/min/10^6 cells. Moreover, the “% Dose in Lung 5 min” value in data set [3] is 62.7%. For the same compound, in data set [3], the “% Dose in Lung 1 hr” value is listed as 13.4%. Also, in data set [3], the half-life is 3.5 h. Also, the Kp at 5 min in data set [3] is 296. Further, the Kp at 1 h in data set [3] amounted to 1590.
Regarding `COC[C@H](C(=O)Nc1cccc2c(-c3nc(Nc4ccc5sc(CO)nc5c4)ncc3F)c[nH]c12)N1CCN(C)CC1` [Example 38, (R)-N-(3-(5-fluoro-2-((2-(hydroxymethyl)benzo[d]thiazol-5-yl)amino)pyrimidin-4-yl)-1H-indol-7-yl)-3-methoxy-2-(4-methylpiperazin-1-yl)propanainide], the intrinsic clearance (microsomal CLint) at 1 μM in data set [1] came to 10.9 µL/min/mg. Moreover, the IC50 at TYK2 worked out at 726 nM. Also, the IC50 in the data set with phosphorylation of STAT6 was 11.8 nM. The IC50 on JAK2 came out at 65 nM. Moreover, at JAK1, the IC50 is 0.13 nM. Moreover, in data set [2], the “Rat Hepatocyte CLint” value was found to be 117.1 μL/min/10^6 cells. In data set [3], the “% Dose in Lung 5 min” value was 79.9%, the “% Dose in Lung 1 hr” value is 19.4%, the half-life was 3.9 h and the Kp at 5 min came to 965. Moreover, the Kp at 1 h in data set [3] worked out at 1780. Moreover, the IC50 on JAK3 was greater than 10000 nM.
In the case of `COC[C@H](C(=O)Nc1cccc2c(-c3nc(Nc4ccnc(CO)c4)ncc3F)c[nH]c12)N1CCN(C)CC1` [Example 2, (R)-N-(3-(5-fluoro-2-((2-(hydroxymethyl)pyridin-4-yl)amino)pyrimidin-4-yl)-1H-indol-7-yl)-3-methoxy-2-(4-methylpiperazin-1-yl)propanamide], in data set [1], the microsomal CLint at 1 μM was 10.6 µL/min/mg. Also, the IC50 at TYK2 came to 1090 nM. Further, the IC50 in the data set with phosphorylation of STAT6 was found to be 4.3 nM. Also, the IC50 on JAK2 turned out to be 202 nM. The IC50 on JAK1 turned out to be 0.25 nM. Moreover, the “Rat Hepatocyte CLint” value in data set [2] is on record as 9.5 μL/min/10^6 cells. In data set [3], the “% Dose in Lung 5 min” value was 18.1%, the “% Dose in Lung 1 hr” value was 13.4%, the half-life was 29.9 h and the Kp at 5 min was 399. In addition, the Kp at 1 h in data set [3] was determined as 3260. Besides, on JAK3, the IC50 was greater than 10000 nM.
The compound `CCC(=O)Nc1ccc(Nc2ncc(F)c(-c3c[nH]c4c(NC(=O)[C@@H](COC)N5CCN(C)CC5)cccc34)n2)cn1` [Example 5, (R)-N-(3-(5-fluoro-2-((6-propionamidopyridin-3-yl)amino)pyrimidin-4-yl)-1H-indol-7-yl)-3-methoxy-2-(4-methylpiperazin-1-yl)propanamide] had a microsomal CLint at 1 μM in data set [1] of 73.9 µL/min/mg. For the same compound, the IC50 on TYK2 turned out to be 764 nM. The IC50 with phosphorylation of STAT6 stood at 5.1 nM. Moreover, the IC50 at JAK2 came out at 268 nM. Moreover, the IC50 at JAK1 amounted to 0.19 nM. Further, in data set [2], the “Rat Hepatocyte CLint” value was 11.0 μL/min/10^6 cells. In addition, in data set [3], the “% Dose in Lung 5 min” value was 101.6%, the “% Dose in Lung 1 hr” value came out at 54.0%, the half-life was 6.1 h and the Kp at 5 min stood at 2100. For the same compound, the Kp at 1 h in data set [3] turned out to be 2940. Further, the IC50 on JAK3 is greater than 10000 nM.
